Data on 2 compounds can be found in patent publication US20190350918A1, “PPARy AGONIST FOR TREATMENT OF HUNTINGTON'S DISEASE” (Coherus Biosciences, Inc., priority 2017, published 2019).

Data set [1] relates to adiponectin. The data set is described as follows: 24-week randomized, double-blind, placebo-controlled study in type 2 diabetes subjects: serum adiponectin levels. In kind it is in vivo, human. As for the experimental part: A randomized, double-blind, placebo-controlled, 24-week study was conducted in which adiponectin levels were measured. […] 367 subjects with type 2 diabetes (TD2)—a disease in which patient adiponectin levels are reduced—were randomly assigned to receive either 0.5, 1, 2 or 3 milligrams (“mg”) of INT131 besylate, 45 mg of pioglitazone or placebo daily for 24 weeks. To measure adiponectin levels blood was drawn at Weeks 0, 2, 6, 12 and 24. At baseline (Week 0) mean adiponectin levels were 1.94 micrograms per milliliter (“μg/mL”). The mean adiponectin levels at baseline and Week 24, and the mean change in adiponectin levels from baseline (Week 0) to Week 24 are disclosed in Table 1, below. The standard deviation for samples tested in each group is listed in (parenthesis). Mean baseline adiponectin values were similar for the treatment groups.

For data set [2] the following is noted: subjects taking INT131 versus pioglitazone; DePaoli, et al. Diabetes Care 2014; cited from earlier work.
Data set [3] concerns HbA1c. As to conditions: DePaoli, et al. Diabetes Care 2014; cited from earlier work.
A further data set deals with R6/2 Huntington's mice. The data set is described as follows: R6/2 Huntington's mice: Huntington disease signs and symptoms. In kind it is in vivo, mouse. The note with it: R6/2 mice; 1 mg/kg, 3 mg/kg, and 6 mg/kg. On the procedure: INT-131 is evaluated in R6/2 Huntington's mice. R6/2 mice express mutant human exon 1 of the HTT gene. R6/2 mice develop Huntington phenotypes, which progress over time. These mice display motor and cognitive deficits, cortical cellular degeneration and striatal cellular morphological changes, as well as alterations in cortical and striatal synaptic transmission. In particular, R6/2 mice develop a loss of coordination, tremors, hypokinesis, abnormal gait, neuropathy, and premature death. After mice develop Huntington symptoms, the mice are administered INT-131 or a placebo at a regular dosing interval over a period of time. INT-131 doses include 1 mg/kg, 3 mg/kg, and 6 mg/kg. Huntington disease signs and symptoms are evaluated in each group over the period of time. After mice develop Huntington symptoms, the mice are administered INT-131 or another therapy for treating Huntington's disease at a regular dosing interval over a period of time. INT-131 doses include 1 mg/kg, 3 mg/kg, and 6 mg/kg. Other therapies include those approved for treatment and those in development for treating Huntington's disease.

Data set [4] has as its system adiponectin. In words: 14-day study in healthy subjects: serum adiponectin levels. Format: in vivo, human. On the procedure:
A study was conducted to determine the effect of INT131 on serum adiponectin levels. Thirty healthy subjects were randomly selected to receive either placebo, 0.1 mg INT131, 1 mg INT131 or 4 mg INT131 daily for 14 days. To measure adiponectin levels blood was drawn at Days 1, 4, 8 and 14.

Data set [5] has as its system HbA1c. The data set is described as follows: 24-week study in type 2 diabetes subjects: HbA1c levels. Format: in vivo, human.

As to `CCc1ccc(CCOc2ccc(CC3SC(=O)NC3=O)cc2)nc1` (centres unmarked) [Pioglitazone, pioglitazone, reference compound], the “mean change in adiponectin from baseline to Week 24 with LOCF” value in the data set on adiponectin [1] (pioglitazone 45 mg group) came out at 2.96 µg/mL.

Turning to `O=S(=O)(Nc1cc(Cl)c(Oc2cnc3ccccc3c2)c(Cl)c1)c1ccc(Cl)cc1Cl` [INT131], the “side effects compared with pioglitazone” value in data set [2] was “less edema, weight gain, and hemodilution”. Also, the “reducing HbA1c levels compared with 45 mg of pioglitazone” value in the data set with HbA1c [3] is on record as “equally efficacious”. In addition, the “Huntington's disease symptoms versus placebo” value with R6/2 Huntington's mice was “reduced Huntington's disease symptoms”. Moreover, the “progression and development of Huntington's disease versus placebo” value with R6/2 Huntington's mice was “slows progression and development”. Moreover, the “slowing progression or development and treating signs and symptoms of Huntington's disease versus another therapy” value with R6/2 Huntington's mice was “as effective, or more effective”. Also, the “change in serum adiponectin levels Day 1 to Day 14 and over placebo” value in the data set on adiponectin [4] (0.1 mg INT131 daily for 14 days) is given as “no significant change”. Besides, the “change in serum adiponectin levels over placebo and from Day 1 to Day 14” value with adiponectin [4] (1 mg or 4 mg INT131 daily for 14 days) was “significant change”. In addition, the “adiponectin levels, treatment comparison with pioglitazone 45 mg” value with adiponectin [1] (0.5 mg, 1 mg, and 3 mg doses of INT131, p≤0.0408) is on record as “statistically significant”. Further, the “adiponectin levels, treatment comparison with placebo” value in the data set on adiponectin [1] (1 mg, 2 mg, and 3 mg doses of INT131, p≤0.0109) is given as “statistically significant”. Further, the “mean change in adiponectin from baseline to Week 24 with LOCF” value was 3.27 µg/mL with adiponectin [1] (2 mg group), 0.56 µg/mL in the data set with adiponectin [1] (INT131 0.5 mg group), 1.28 µg/mL in the data set on adiponectin [1] (INT131 1 mg group) and 3.83 µg/mL in the data set with adiponectin [1] (INT131 3 mg group). The “upregulation of serum adiponectin levels compared with pioglitazone” value in the data set with adiponectin [1] (INT131 at either 2 or 3 mg versus 45 mg pioglitazone) is listed as “greater upregulation”. Also, the “HbA1c levels as compared to placebo” value in the data set with HbA1c [5] (1, 2, and 3 mg doses of INT131, 24 weeks) was “statistically significant reduction”. For the same compound, the “reduction of HbA1c levels compared with 45 mg of pioglitazone” value with HbA1c [5] (2 and 3 mg doses of INT131, 24 weeks) was “at least as well as 45 mg of pioglitazone”.
